From ChEMBL document CHEMBL1145372, “(Phenylpiperidinyl)cyclohexylsulfonamides: development of alpha1a/1d-selective adrenergic receptor antagonists for the treatment of benign prostatic hyperplasia/lower urinary tract symptoms (BPH/LUTS)” (Bioorg Med Chem Lett, 2007)

Tests used:
[1] = molecular target: T1, Alpha-1B adrenergic receptor (Homo sapiens, UniProt P35368); assay: Binding affinity to human cloned adrenergic alpha-1b receptor
T1 sequence (P35368 whole entry): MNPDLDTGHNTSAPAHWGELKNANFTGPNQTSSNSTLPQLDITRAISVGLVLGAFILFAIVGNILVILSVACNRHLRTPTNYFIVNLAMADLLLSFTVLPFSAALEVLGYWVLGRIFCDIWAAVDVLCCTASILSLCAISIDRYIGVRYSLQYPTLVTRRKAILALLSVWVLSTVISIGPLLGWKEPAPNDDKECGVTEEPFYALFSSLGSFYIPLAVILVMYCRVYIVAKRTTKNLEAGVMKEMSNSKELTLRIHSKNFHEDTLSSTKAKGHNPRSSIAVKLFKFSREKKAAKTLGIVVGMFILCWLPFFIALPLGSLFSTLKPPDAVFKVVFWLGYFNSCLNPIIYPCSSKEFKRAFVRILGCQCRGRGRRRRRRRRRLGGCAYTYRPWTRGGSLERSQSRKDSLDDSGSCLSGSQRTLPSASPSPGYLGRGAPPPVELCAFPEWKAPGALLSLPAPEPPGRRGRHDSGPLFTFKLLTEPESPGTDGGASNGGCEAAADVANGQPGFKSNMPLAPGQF

[2] = molecular target: T2, Alpha-1D adrenergic receptor (Homo sapiens, UniProt P25100); assay: Binding affinity to human cloned adrenergic alpha-1d receptor
T2 sequence (P25100 whole entry): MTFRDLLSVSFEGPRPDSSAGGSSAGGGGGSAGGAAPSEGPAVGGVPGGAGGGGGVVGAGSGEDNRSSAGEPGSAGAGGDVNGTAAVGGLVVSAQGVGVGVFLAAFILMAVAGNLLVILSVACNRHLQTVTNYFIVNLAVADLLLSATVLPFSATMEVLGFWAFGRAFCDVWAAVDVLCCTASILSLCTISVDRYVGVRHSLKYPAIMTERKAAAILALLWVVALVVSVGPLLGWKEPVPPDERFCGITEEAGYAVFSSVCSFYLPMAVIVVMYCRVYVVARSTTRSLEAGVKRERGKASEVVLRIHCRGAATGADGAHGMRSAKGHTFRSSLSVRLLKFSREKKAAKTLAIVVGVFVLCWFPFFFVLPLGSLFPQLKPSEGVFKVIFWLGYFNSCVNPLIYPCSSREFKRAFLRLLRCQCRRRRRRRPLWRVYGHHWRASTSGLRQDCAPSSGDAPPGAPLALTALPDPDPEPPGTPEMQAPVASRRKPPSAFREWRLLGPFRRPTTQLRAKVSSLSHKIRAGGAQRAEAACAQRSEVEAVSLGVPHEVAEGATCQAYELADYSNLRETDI

D(2) dopamine receptor = D(2) dopamine receptor (Homo sapiens, UniProt P14416); assay: Binding affinity for dopamine D2 receptor
Chain of D(2) dopamine receptor (P14416 whole entry): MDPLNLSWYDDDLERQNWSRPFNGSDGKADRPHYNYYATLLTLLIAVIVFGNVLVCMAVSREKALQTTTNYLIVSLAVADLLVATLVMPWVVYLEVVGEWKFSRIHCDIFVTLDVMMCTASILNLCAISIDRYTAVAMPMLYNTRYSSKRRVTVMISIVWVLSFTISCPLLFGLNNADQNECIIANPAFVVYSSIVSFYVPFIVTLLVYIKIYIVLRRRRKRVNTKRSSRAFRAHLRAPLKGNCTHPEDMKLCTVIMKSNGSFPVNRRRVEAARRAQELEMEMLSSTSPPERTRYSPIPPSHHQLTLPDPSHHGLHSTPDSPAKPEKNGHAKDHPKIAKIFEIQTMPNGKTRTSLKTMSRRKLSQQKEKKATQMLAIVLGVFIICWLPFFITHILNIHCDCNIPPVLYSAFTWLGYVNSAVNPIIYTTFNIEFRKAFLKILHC

[3] = molecular target: T3, Alpha-1A adrenergic receptor (Homo sapiens, UniProt P35348); assay: Binding affinity to human cloned adrenergic alpha-1a receptor
T3 sequence (P35348 whole entry): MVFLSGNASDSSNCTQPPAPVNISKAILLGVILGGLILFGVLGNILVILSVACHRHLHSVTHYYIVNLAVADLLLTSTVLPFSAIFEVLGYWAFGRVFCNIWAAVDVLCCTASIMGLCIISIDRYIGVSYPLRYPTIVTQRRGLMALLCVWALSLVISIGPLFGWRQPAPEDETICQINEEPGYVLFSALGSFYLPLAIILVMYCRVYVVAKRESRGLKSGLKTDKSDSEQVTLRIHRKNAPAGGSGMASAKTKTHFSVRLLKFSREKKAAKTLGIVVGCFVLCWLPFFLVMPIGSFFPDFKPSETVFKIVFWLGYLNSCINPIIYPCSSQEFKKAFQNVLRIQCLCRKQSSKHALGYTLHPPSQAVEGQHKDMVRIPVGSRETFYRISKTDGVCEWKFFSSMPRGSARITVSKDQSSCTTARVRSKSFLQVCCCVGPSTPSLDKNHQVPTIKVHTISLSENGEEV

Structure (SMILES) | Ki [1] | Ki [2] | Ki (D(2) dopamine receptor) | Ki [3]
CC(C)Oc1ccccc1C1CCN([C@H]2CC[C@H](NS(=O)(=O)c3ccc(F)c(F)c3)CC2)CC1 | 1380 nM | 87 nM | 79 nM | 1.4 nM
COc1ccc(S(=O)(=O)N[C@H]2CC[C@@H](N3CCC(c4cc(F)ccc4OC(C)C)CC3)CC2)cc1OC |  |  | 178 nM | 
O=S(=O)(N[C@H]1CC[C@@H](N2CCC(c3ccccc3OCC(F)(F)F)CC2)CC1)c1ccc(OC(F)F)cc1 |  |  | 154 nM | 
CC(C)Oc1ccccc1C1CCN([C@H]2CC[C@@H](NS(=O)(=O)c3ccc(F)c(F)c3)CC2)CC1 |  |  | 79 nM | 
O=S(=O)(N[C@H]1CC[C@H](N2CCC(c3ccccc3OCC(F)(F)F)CC2)CC1)c1ccc2c(c1)OCCO2 | 91 nM |  | 23 nM | 
COc1ccc(S(=O)(=O)N[C@H]2CC[C@H](N3CCC(c4ccccc4OCC(F)F)CC3)CC2)cc1OC |  |  | 88 nM | 31 nM
O=S(=O)(N[C@H]1CC[C@H](N2CCC(c3ccccc3OC3CC3)CC2)CC1)c1ccc2c(c1)OCO2 |  |  | 71 nM | 
COc1ccc(S(=O)(=O)N[C@H]2CC[C@H](N3CCC(c4ccccc4OC(C)C)CC3)CC2)cc1OC |  |  | 55 nM | 
COc1ccc(Cl)cc1S(=O)(=O)N[C@H]1CC[C@@H](N2CCC(c3ccccc3OC3CC3)CC2)CC1 |  |  | 129 nM | 
COc1ccc(S(=O)(=O)N[C@H]2CC[C@H](N3CCC(c4ccccc4OCC(F)(F)F)CC3)CC2)cc1OC | 368 nM | 23 nM | 83 nM | 21 nM
O=S(=O)(N[C@H]1CC[C@@H](N2CCC(c3ccccc3OCC(F)(F)F)CC2)CC1)c1cccc(OC(F)F)c1 |  |  | 85 nM | 
COc1ccc(S(=O)(=O)N[C@H]2CC[C@@H](N3CCC(c4ccccc4OCC(F)(F)F)CC3)CC2)cc1OC | 123 nM | 2.2 nM | 111 nM | 1.8 nM
COc1ccc(Cl)cc1S(=O)(=O)N[C@H]1CC[C@H](N2CCC(c3ccccc3OC3CC3)CC2)CC1 |  |  | 154 nM | 
COc1ccc(S(=O)(=O)N[C@H]2CC[C@@H](N3CCC(c4ccccc4OCCF)CC3)CC2)cc1OC | 401 nM | 5.5 nM | 201 nM | 8.5 nM
COc1ccc(S(=O)(=O)N[C@H]2CC[C@H](N3CCC(c4ccc(F)cc4OC(C)C)CC3)CC2)cc1OC |  |  | 104 nM | 
O=S(=O)(N[C@H]1CC[C@H](N2CCC(c3ccccc3OCC(F)(F)F)CC2)CC1)c1cccc(OC(F)F)c1 |  |  | 129 nM | 

Structure (SMILES) | Ki [1] | Ki [2] | Ki (D(2) dopamine receptor) | Ki [3]
O=S(=O)(N[C@H]1CC[C@H](N2CCC(c3ccccc3OCC(F)(F)F)CC2)CC1)c1cc(Cl)ccc1F |  |  | 37 nM | 4.8 nM
O=S(=O)(N[C@H]1CC[C@H](N2CCC(c3ccccc3OCC(F)(F)F)CC2)CC1)c1ccc(OC(F)F)cc1 |  |  | 104 nM | 38 nM
COc1ccc(S(=O)(=O)N[C@H]2CC[C@@H](N3CCC(c4ccccc4OC4CC4)CC3)CC2)cc1OC |  |  | 144 nM | 
COc1ccc(Cl)cc1S(=O)(=O)N[C@H]1CC[C@H](N2CCC(c3ccccc3OCC(F)(F)F)CC2)CC1 |  |  | 82 nM | 10 nM
O=S(=O)(N[C@H]1CC[C@@H](N2CCC(c3ccccc3OC3CC3)CC2)CC1)c1ccc2c(c1)OCO2 |  |  | 66 nM | 16 nM
O=S(=O)(N[C@H]1CC[C@H](N2CCC(c3ccccc3OC3CC3)CC2)CC1)c1cc(Cl)ccc1F |  |  | 159 nM | 
COc1ccc(S(=O)(=O)N[C@H]2CC[C@@H](N3CCC(c4ccccc4OC(C)C)CC3)CC2)cc1OC |  | 0.77 nM | 144 nM | 2.2 nM
COc1ccc(S(=O)(=O)N[C@H]2CC[C@@H](N3CCC(c4ccc(F)cc4OC(C)C)CC3)CC2)cc1OC |  | 12 nM | 106 nM | 
COc1ccc(S(=O)(=O)N[C@H]2CC[C@H](N3CCC(c4cc(F)ccc4OC(C)C)CC3)CC2)cc1OC |  |  | 94 nM | 
O=S(=O)(N[C@H]1CC[C@@H](N2CCC(c3ccccc3OC3CC3)CC2)CC1)c1cc(Cl)ccc1F |  |  | 187 nM | 
COc1ccc(S(=O)(=O)N[C@H]2CC[C@H](N3CCC(c4ccccc4OCCF)CC3)CC2)cc1OC |  |  | 284 nM | 
O=S(=O)(N[C@H]1CC[C@@H](N2CCC(c3ccccc3OCC(F)(F)F)CC2)CC1)c1ccc2c(c1)OCCO2 |  |  | 57 nM | 
COc1ccc(Cl)cc1S(=O)(=O)N[C@H]1CC[C@@H](N2CCC(c3ccccc3OCC(F)(F)F)CC2)CC1 |  | 1.6 nM | 69 nM | 
COc1ccc(S(=O)(=O)N[C@H]2CC[C@H](N3CCC(c4ccccc4OC4CC4)CC3)CC2)cc1OC |  | 34 nM | 133 nM | 11 nM
COc1ccc(S(=O)(=O)N[C@H]2CC[C@@H](N3CCC(c4ccccc4OCC(F)F)CC3)CC2)cc1OC |  |  | 276 nM | 
O=S(=O)(N[C@H]1CC[C@@H](N2CCC(c3ccccc3OCC(F)(F)F)CC2)CC1)c1cc(Cl)ccc1F |  |  | 78 nM | 5.9 nM
